Measurements taken from US20180071317A1, “USE OF AGENTS THAT ALTER THE PERITUMORAL ENVIRONMENT FOR THE TREATMENT OF CANCER” (SERVICIO ANDALUZ DE SALUD, priority 2011, published 2018).

Assays:
[1] = tested on: fibroblasts (PHF) co-cultured with tumor cells in human prostate carcinoma (22Rv1); test: Marker expression (IHC) in PHF co-cultured with 22Rv1 tumor cells; format: cell-based; conditions: co-culture with 22Rv1; SP 1 μM + antagonist 1 μM; 48 h;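 also: cultures grown on fresh plasma from a healthy donor, each experiment run sixfold, values give the percentage of fibroblasts positive for the given marker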
Experimental: (§4) All cultures were maintained 48 hours, following which the same cells were included in paraffin blocks for subsequent analysis of the expression of different markers by immunohistochemistry (see Example 1). […] All experiments were carried out sixfold. Analyzed markers in fibroblast cells (stromal cells) were: TGF-α, TGF-β1, TGF-β2, TGF-β3, SPARC, MMP-3, MMP-7, MMP-9, MMP-11, MMP-13 and MMP-14.

[2] = tested on: polymorphonuclear cells; test: Marker expression (immunohistochemistry) in polymorphonuclear blood cells with SP alone or with NK1 antagonists; format: cell-based, human; conditions: SP 1 μM + antagonist 1 μM; 48 h
From the text: Briefly, heparinized blood from healthy donors was centrifuged so as to separate the various components thereof. Red blood cells remained at the bottom of the tube. Above them was a small white layer composed of the white blood cells and above, on top of the tube, the blood plasma. The layer of white cells was distributed in a culture plate of 24 wells by adding in each the same concentration of blood plasma from the same donor, supplemented with 1% antibiotic-antimycotic (Invitrogen). In each well, approximately 1000 cells (PHF) skin from the dermis were further added, obtained as previously described in Example 2. […] After 48 hours of incubation, cells were collected and embedded in paraffin for expression analysis by immunohistochemical techniques (as described in Example 1).
The expression of TGF molecular markers (anti-TGF 2, SAB4502956) and NF-kB (anti-NF-kB, SAB4501992) using specific antibodies against them were analyzed. All antibodies used were rabbit polyclonal antibodies obtained from Sigma Aldrich and were used at a concentration of 1/1000. All experiments were carried out sixfold.

[3] = tested on: fibroblasts (PHF) co-cultured with tumor cells of human Edwing sarcoma (MHH-ES-1); test: Marker expression (IHC) in PHF co-cultured with MHH-ES-1 tumor cells; format: cell-based; conditions: PHF co-cultured with MHH-ES-1 + SP + NK1 antagonist
Experimental: as §4

[4] = tested on: fibroblasts of tumors produced by human rhabdomyosarcoma tumor line (A-204); test: Marker expression (IHC) in fibroblasts of tumor or peritumoral area, mouse model, A-204; format: in vivo; conditions: A-204 tumors in mice, 30 mg/kg/day oral, 7 days
Experimental: (§1) In vitro tests conducted in Example 5 are now carried out in an experimental model in mice in vivo. […] Subsequently, the expression in fibroblasts tumoral and peritumoral area of molecular markers associated with progression and maintenance of tumors: TGF-α, TGF-β1, TGF-β2, TGF-β3, MMP-7, MMP-11, MMP-14 were analyzed by immunohistochemistry.
(§2) Were injected with 2×10^7 cells tumors (corresponding, in each case to each of the tumor types as specified in Table 9) in 200 of PBS subcutaneously μl. […] Mice were randomized into two groups when the tumors reached a volume of 75 mm^3 One group was treated with non-peptide receptor antagonists NK1 and the other with placebo 200μ1. […] Tumors and samples of non-neoplastic stromal areas remote from the tumor were halved, formalin fixed (4%) and then were included in paraffin blocks for analysis by immunohistochemistry.
(§3) The expression on fibroblast cells obtained in the animal model was analyzed by immunohistochemistry, of the above markers: TGF-α, TGF-β1, TGF-β2, TGF-β3, MMP-7, MMP-1 1, MMP-14MP-14. Tables 32 to 35 depict the type of label used and the average percentage of fibroblasts present in non-tumor areas, tumor and peritumoral (±SD) which were expressing the marker shown in each of the tumor types developed from of the different cell lines used. This process was realized in mice treated with non-peptide antagonists of NK1 receptor and in untreated animals (control).

[5] = tested on: fibroblasts of tumors produced by tumor cell line of human melanoma (MEL HO); test: Marker expression (IHC) in fibroblasts of tumor or peritumoral area, mouse model, MEL HO; format: in vivo; conditions: MEL HO tumors in mice, 30 mg/kg/day oral, 7 days
Experimental: as §1, §2, §3

[6] = tested on: fibroblasts (PHF) co-cultured with human fibrosarcoma tumor cells (HT-1080); test: Marker expression (IHC) in PHF co-cultured with HT-1080 tumor cells; format: cell-based; conditions: co-culture with HT-1080; SP 1 μM + antagonist 1 μM; 48 h;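 also: cultures grown in fresh human plasma from a healthy donor, six replicates, value is percent of fibroblasts positive for the marker, compared with fibroblasts cultured without tumor cells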
Experimental: as §4

[7] = tested on: human primary macrophages (PHM); test: Marker expression (immunohistochemistry) in human primary macrophages with SP alone or with NK1 antagonists; format: cell-based; conditions: SP 1 μM + antagonist 1 μM; 48 h
[8] = tested on: fibroblasts (PHF) co-cultured with tumor cells of human Burkitt lymphoma (CA-46); test: Marker expression (IHC) in PHF co-cultured with CA-46 tumor cells; format: cell-based; conditions: PHF co-cultured with CA-46 + SP + NK1 antagonist;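 also: percentage of PHF fibroblasts positive for each marker, cultures grown in fresh human plasma from a healthy donor, six replicates, compared with fibroblasts cultured alone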
Experimental: All cultures were maintained 48 hours, following which the same cells were included in paraffin blocks for subsequent analysis of the expression of different markers by immunohistochemistry (see Example 1). The primary antibodies used to perform immunohistochemical assays and their concentration are detailed in Example 2. All experiments were carried out sixfold. Analyzed markers in fibroblast cells (stromal cells) were: TGF-α, TGF-β1, TGF-β2, TGF-β3, SPARC, MMP-3, MMP-7, MMP-9, MMP-11, MMP-13 and MMP-14.

CC(=O)N1CCN([C@H]2CCN(C(=O)N(C)[C@H](C)c3cc(C(F)(F)F)cc(C(F)(F)F)c3)[C@@H](c3ccc(F)cc3C)C2)CC1 [Casopitant]
0%: PHF cells expressing MMP-3 [1] | PHF cells expressing MMP-7 [1] | PHF cells expressing MMP-9 [1] | PHF cells expressing MMP-11 [1] | PHF cells expressing MMP-13 [1] | PHF cells expressing MMP-14 [1] | PHF cells expressing SPARC [1] | PHF cells expressing TGF-α [1] | PHF cells expressing TGF-β1 [1] | PHF cells expressing TGF-β2 [1] | PHF cells expressing TGF-β3 [1] | polymorphonuclear cells expressing NF-kB [2] | polymorphonuclear cells expressing TGF-β [2] | cells expressing MMP-3 [3] | cells expressing MMP-7 [3] | cells expressing MMP-9 [3] | cells expressing MMP-11 [3] | cells expressing MMP-13 [3] | cells expressing MMP-14 [3] | cells expressing SPARC [3] | cells expressing TGF-α [3] | cells expressing TGF-β1 [3] | cells expressing TGF-β2 [3] | cells expressing TGF-β3 [3] | fibroblasts expressing MMP-7 [4] | fibroblasts expressing MMP-11 [4] | fibroblasts expressing MMP-14 [4] | fibroblasts expressing TGF-α [4] | fibroblasts expressing TGF-β 1 [4] | fibroblasts expressing TGF-β 2 [4] | fibroblasts expressing TGF-β 3 [4] | fibroblasts expressing MMP-7 [5] | fibroblasts expressing MMP-11 [5] | fibroblasts expressing MMP-14 [5] | fibroblasts expressing TGF-α [5] | fibroblasts expressing TGF-β 1 [5] | fibroblasts expressing TGF-β 2 [5] | fibroblasts expressing TGF-β 3 [5] | PHF cells expressing MMP-3 [6] | PHF cells expressing MMP-7 [6] | PHF cells expressing MMP-9 [6] | PHF cells expressing MMP-11 [6] | PHF cells expressing MMP-13 [6] | PHF cells expressing MMP-14 [6] | PHF cells expressing SPARC [6] | PHF cells expressing TGF-α [6] | PHF cells expressing TGF-β1 [6] | PHF cells expressing TGF-β2 [6] | PHF cells expressing TGF-β3 [6] | macrophages expressing EGF [7] | macrophages expressing MMP-9 [7] | macrophages expressing VEGF [7] | cells expressing MMP-3 [8] | cells expressing MMP-7 [8] | cells expressing MMP-9 [8] | cells expressing MMP-11 [8] | cells expressing MMP-13 [8] | cells expressing MMP-14 [8] | cells expressing SPARC [8] | cells expressing TGF-α [8] | cells expressing TGF-β1 [8] | cells expressing TGF-β2 [8] | cells expressing TGF-β3 [8]
